According to patent US11320428B2, “Probe for dual-mode bio-imaging” (THE HONG KONG UNIVERSITY OF SCIENCE AND TECHNOLOGY, priority 2017, dated 2022):

Assays:
HeLa cells [1] = test: Cell viability / cytotoxicity evaluated by MTT assay; type: cell-based
Procedure: For cell culturing, HeLa cells were cultured in the MEM containing 10% FBS and antibiotics (100 units/mL penicillin and 100 µg/mL streptomycin) in a humidity incubator with an atmosphere of 5% CO2 at 37° C. and subcultured every 2-3 days.
For cell viability evaluated by MTT assay, cells were seeded in 96-well plates at a density of 10000 cells per well. After 24 h incubation, medium in each well was replaced by 100 μL fresh medium containing different concentrations of AIE-SRS-Mito. After 24 hours of treatment, into each well, 10 μL MTT solution (5 mg/mL in PBS) was added. After 4 hours of incubation, the MTT-containing solution was gently removed and replaced with 100 μL of DMSO. After agitation, the absorption of each well at 490 nm was recorded via a plate reader (Perkin-Elmer Victor3™). Each of the experiments were performed for 6 wells parallel. The background of the blank was subtracted and the cell viability of the control group was set to unity.
Cell cytotoxicity was evaluated by MTT assay (FIG. 4E). HeLa cells were incubated with different concentrations of AIE-SRS-Mito for 24 hours. For example, HeLa cells were incubated with different concentrations of AIE-SRS-Mito for 20 or 40 min and then the medium was replaced with fresh medium, followed by further incubation for 24 hours.

HeLa cells [2] = test: Fluorescence cell imaging and co-localization with Mitotracker Red FM; type: cell-based; settings: 20 min
Procedure: For cell imaging, HeLa cells were grown overnight on a 35-mm petri dish with a cover slip. The cover slip was mounted to an iron slide with observation window. The staining solution was prepared by adding the dye stock solution (10 mM in DMSO) in to 2 mL of cell medium. Before imaging, the cells were stained with 2 mL of dye solution for a certain time and then imaged under an FL microscope (BX41 upright Microscope) using different combinations of excitation and emission filters for each dye.
To verify the mitochondrial specificity of AIE-SRS-Mito, cellular imaging was first conducted by incubating HeLa cells with 5 μM AIE-SRS-Mito for 20 min.
A co-localization experiment was then conducted using AIE-SRS-Mito and a commercial mitochondrial probe, Mitotacker Red (MTR) FM. The excitation wavelength was 330-385 nm for AIE-SRS-Mito and 540-580 nm for MTR. As shown in FIGS. 4A-4D, AIE-SRS-Mito stained the linear reticulum-like structures in cells with high contrast.

HeLa cells [3] = test: FL-SRS imaging: intracellular dye concentration from SRS intensity (ISRS=0.1567c); type: cell-based; settings: for percentage of high concentration region (>0.5 mM) / ultimate high concentration within the cells: 20 μM; for ultimate high concentration within the cells: covering >99.5% cell area
From the text: To eliminate the influence of light reflection and scattering on the baseline, SRS intensity ION at 2223 cm^−1 (resonance-on) and IOFF at 2160 cm^−1 (resonance-off) was used to calculate the SRS signal intensity ISRS=ION−IOFF. After subtracting the intrinsic ISRS=0.042 V in pure DMSO (background), a linear relationship between SRS intensity ISRS and the dye concentration c was obtained as ISRS=0.1567c with R^2=0.99944 in the plot shown in FIG. 5B. The analytical detection limit and quantification limit were calculated to be 8.5 μM and 28.4 μM, respectively, indicating the high sensitivity of the SRS system. Further, the SRS spectra of AIE-SRS-Mito were collected at different concentrations in DMSO and no obvious shifts in the peak position was found, indicating the inertness of Raman signal to the concentration change. Due to the inert response of SRS signal to the change of environment, the linear plot of ISRS=0.1567c can act further as a calibration for the intracellular dye concentration by keeping the same signal collecting condition.
At first, as shown in FIGS. 9A-9D, images of HeLa cells were collected by TPEF and SRS signals, respectively, and the merged image indicated a perfect co-localization of the intracellular distribution of the fluorescence and SRS signals, confirming the dual-modality of the probe. […] Due to the inertness of SRS signal and the linear relationship (ISRS=0.1567 c), the distribution of the dye concentration inside a single cell was further analyzed.
To examine the influence of intracellular concentration of AIE-SRS-Mito on the cells, attempts were made to increase the amounts of dye in the cells by increasing the incubation time. As shown in FIGS. 11A-11F, with the extension of incubation time, both the TPEF and SRS intensity were increased with a reduced mitochondrial selectivity. […] This can be attributed to the fact that the high concentration of cationic dyes in the mitochondria matrix will cause depolarization and increase the osmotic stress of the mitochondria, consequently leading to cell death as indicated by the results of the MTT assay (FIG. 4E). Similar results were found when increasing the dye concentration (FIGS. 12A-12F).
To further study acceptable intracellular concentrations of the dye molecules in a cell, the distribution of the dye concentration for cells was plotted. The percentages of high concentration region (>0.5 mM) were calculated to be 16.7%, 23.9% and 30.0% for the cells incubated with 20 μM of AIE-SRS-Mito for 30, 60 and 105 min, respectively. The ultimate high concentration within the cells was estimated to be 1.5, 2.0, 3.0 mM, respectively, covering >99.5% cell area. […] Such a high concentration is enough to cause the quenching of Rhodamine 123 in cells.

[4] = Behaviour in DMSO-water mixtures (solubility in water); type: physicochemical; settings: aggregation/precipitation above 70 vol % water, 10 μM
From the text: Then AIE-SRS-Mito was studied in DMSO-water mixtures with different water fractions. As shown in FIGS. 1C-1D, the emission peak intensity was decreased with the increase of water fraction from 0 to 70 vol % due the quenching effect of the highly polar water. […] This is a typical AIE phenomenon, as the free intramolecular rotations of the excited molecules were restricted upon aggregation, thus blocking the non-radiative decays and favoring the radiative decay. Only a slight red-shift in peak wavelength was observed and this should be attributed to the increased solution polarity by increasing water fraction. The AIE feature and TICT effect upon excitation were further verified by the theoretical calculations (FIGS. 2A-2C).

HeLa cells [5] = test: SRS imaging in live cells; type: cell-based; settings: 5 μM for 60 min, staining much shorter than EdU
Procedure: SRS imaging was conducted with live HeLa cells to validate a newly built SRS imaging system. The DNA of HeLa cells were pre-labeled with EdU by incubation with 100 μM of EdU in culture medium for 22 hours to ensure sufficient cell-uptake. FIGS. 7A-7D show the distributions of protein, lipid, cytochrome c and DNA in HeLa cells at 2950 cm^−1, 2845 cm^−1, 752 cm^−1, and 2125 cm^−1, respectively.
Due to the high Raman signal (RIE=6) and mitochondria targeting of AIE-SRS-Mito, AIE-SRS-Mito can serve as a mitochondrial probe for Raman microscopy. In previous reports, cytochrome c, an endogenous protein abundant in the mitochondria membrane, was used for visualization of the mitochondria. However, compared to the unclear and low-contrast image of mitochondria by cytochrome c (752 cm^−1, FIG. 7C), the SRS image of mitochondria in HeLa cells were obtained at 2223 cm^−1 with much more clear reticulum-like structures after incubated with 5 μM of AIE-SRS-Mito for 60 min (FIGS. 8A and 8C). Meanwhile, the nuclei of the Hela cells were prelabeled with EdU and imaged at 2125 cm^−1 (FIGS. 8B and 8D).

## CC[n+]1ccc(-c2ccc(/C(C#N)=C/c3ccc(C#Cc4ccccc4)cc3)cc2)cc1 [AIE-SRS-Mito]
HeLa cells [1]; Homo sapiens, incubation for 24 hours, concentrations 0 to 40 μM, FIG. 4E, read-out: half maximal inhibitory concentration (IC50) of cell viability
  IC50: ~7 µM
HeLa cells [1]; treatment with <40 μM for <40 min, then fresh medium and further 24 hours
  cell viability: over 70%
HeLa cells [2]; HeLa cells co-stained, 5 μM probe and 100 nM MTR
  mitochondrial selectivity (overlap with Mitotracker Red FM fluorescence): good mitochondrial selectivity
HeLa cells [2]; HeLa cells, 5 μM, fluorescence imaging, compared to synthetic precursors
  cell permeability: good cell permeability
HeLa cells [3]; HeLa cells, with moderate cell viability
  dye concentration in mitochondria matrix tolerated by cells: up to 3.0 mM
HeLa cells [3]; HeLa, 30 min
  percentage of high concentration region (>0.5 mM): 16.7%
  ultimate high concentration within the cells: 1.5 mM
HeLa cells [3]; HeLa, 60 min
  percentage of high concentration region (>0.5 mM): 23.9%
  ultimate high concentration within the cells: 2.0 mM
HeLa cells [3]; HeLa, 105 min
  percentage of high concentration region (>0.5 mM): 30.0%
  ultimate high concentration within the cells: 3.0 mM
HeLa cells [3]; HeLa, incubation concentration 20 μM, 30 min
  local concentration relative to incubation concentration: 75 folds
HeLa cells [3]; single HeLa cell, 20 μM for 30 min, FIG. 10D
  local concentration within a cell: up to 1.5 mM
[4]
  solubility in water: poor solubility
HeLa cells [5]
  cell permeability: good cell permeability
